Holding throughout (assay): DTP human tumour cell line panel, 48 h
For assay [1], the system named is EKVX NSCLC.
Assay [2] concerns K-562 leukemia.
The test system of assay [3] is HCT-116 colon.
Assay [4] has as its system OVCAR-5 ovarian.
Assay [5] relates to COLO 205 colon.
Assay [6] has as its system HOP-92 NSCLC.
Assay [7] relates to TK-10 renal.
The subject of assay [8] is NCI-H226 lung.
Assay [9] relates to A549 NSCLC.
The test system of assay [10] is SK-MEL-5 melanoma.
The subject of assay [11] is DU-145 prostate.
For assay [12], the system named is OVCAR-4 ovarian.
For assay [13], the system named is UACC-62 melanoma.
Assay [14] concerns HOP-62 NSCLC.
Assay [15] relates to CAKI-1 renal.
Assay [16] relates to M14 melanoma.
For assay [17], the system named is U251 CNS.
Assay [18] deals with 786-0 renal.
Assay [19] deals with IGROV1 ovarian.
Assay [20] deals with BT-549 breast.

This note sets out measurements from PubChem BioAssay (NCI).

SMILES strings stand for the structures.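 In this assay, cells in 96-well plates receive the compound at five concentrations for 48 hours. Endpoints are linearly interpolated between the surrounding concentrations. The concentration for full growth arrest is given as TGI.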

By TGI is commonly meant the concentration giving total growth inhibition. A higher TGI goes with lower sensitivity of the cells. As for `NNc1ncc2c(n1)-c1ccccc1OC2`, the TGI in assay [1], in assay [2], in assay [3], in assay [4], in assay [5] and in assay [6] was greater than 100 µM throughout. In addition, the TGI in assay [7], in assay [8], in [9], in assay [10], in assay [11] and in assay [12] was greater than 100 µM throughout. For the same compound, the TGI in [13], in [14], in assay [15], in [16], in assay [17] and in [18] was greater than 100 µM each time. Further, the TGI in assay [19] was greater than 100 µM.
In the case of `C#CC(O)/C=C/C(O)CCCC(O)CC#CC(O)C#CC(O)CCCC(O)/C=C/CCCCCC(=O)CCCCCCCCCCCCCC(O)C(O)C#CC(=O)O` (configuration not stated), the TGI is greater than 50 µM in assay [1]; greater than 50 µM in assay [2]; greater than 50 µM in assay [3]; greater than 50 µM in assay [4]; greater than 50 µM in assay [5]; 27.1 µM in assay [6]. In addition, the TGI is greater than 50 µM in assay [7]; greater than 50 µM in [8]; greater than 50 µM in assay [9]; greater than 50 µM in [10]; greater than 50 µM in [11]; 17.9 µM in assay [12]. The TGI in [13], in assay [14], in assay [15], in assay [16], in assay [17] and in [18] was greater than 50 µM each time. In assay [19], this compound registered a TGI of 36.6 µM.
In the case of `O=S(=O)(Oc1ccc2ccccc2c1-c1c(OS(=O)(=O)C(F)(F)F)ccc2ccccc12)C(F)(F)F`, the TGI in assay [1], in [2], in assay [20], in assay [3], in assay [4] and in assay [5] was greater than 100 µM each time. Moreover, the TGI in [6] is 34.2 µM; in assay [8], greater than 100 µM; in assay [9], greater than 100 µM; in assay [10] it was greater than 100 µM; in [12], greater than 100 µM; in assay [13], greater than 100 µM. The TGI in assay [14], in assay [15], in assay [16], in [17], in [18] and in assay [19] was greater than 100 µM throughout.
With `COC(=O)c1ccccc1C1=C([N+](=O)[O-])C(c2cccc(Br)c2)C(C#N)=C(N)O1` (configuration not stated), the TGI is 97.7 µM in [1]; 76.5 µM in assay [2]; 92.9 µM in [3]; greater than 100 µM in assay [4]; greater than 100 µM in assay [5]; 62.1 µM in assay [6]. Further, the TGI is greater than 100 µM in assay [7]; greater than 100 µM in assay [8]; greater than 100 µM in [9]; greater than 100 µM in [10]; greater than 100 µM in assay [11]; 42.7 µM in assay [13]. For the same compound, the TGI in assay [14] is greater than 100 µM; in assay [16], 77.5 µM; in assay [17] it was greater than 100 µM; in [18], 63.2 µM; in assay [19], 77.6 µM.
On to `CC(NC(=O)OC(C)(C)C)C(=O)NC(Cc1ccccc1)C(=O)NCC(=O)Oc1c(Cl)c(Cl)c(Cl)c(Cl)c1Cl` (configuration not stated), for which the TGI was 48.7 µM in [1]; greater than 100 µM in assay [2]; 69.3 µM in [20]; 43.9 µM in assay [3]; 42.8 µM in assay [4]; 70.9 µM in [5]. The TGI is 38.3 µM in assay [6]; 71.5 µM in assay [7]; 43.5 µM in assay [8]; 48.1 µM in assay [9]; 27.4 µM in assay [10]; 50.4 µM in [13]. Also, the TGI came out at 37.4 µM in assay [14]; 73.8 µM in assay [16]; 46.7 µM in assay [17]; 46.4 µM in assay [18]; 44.2 µM in [19].
Regarding `O=C1OCCC[C@H]2O[C@@H](COCc3ccccc3)C[C@@H]12`, the TGI in assay [2], in assay [3], in assay [4], in assay [5], in assay [6] and in [7] was greater than 100 µM each time. For the same compound, the TGI in assay [8], in assay [9], in [10], in [11], in [12] and in assay [13] was greater than 100 µM each time. Besides, the TGI in [14], in assay [15], in [16], in assay [17] and in assay [18] was greater than 100 µM each time.
Take `O=c1oc2c/c(=C\c3ccccn3)c(=O)c3cccc1c3-2`: the TGI in assay [1], in assay [2], in assay [3], in [4], in [5] and in [6] was greater than 100 µM each time. The TGI in [7], in assay [8], in assay [10], in assay [11], in assay [12] and in assay [13] was greater than 100 µM each time. The TGI in assay [14] is 39.2 µM; in assay [15], greater than 100 µM; in assay [16], greater than 100 µM; in assay [18], greater than 100 µM; in [19] it was greater than 100 µM.
For the compound `N#CC1=C(N)OC(c2cccc([N+](=O)[O-])c2)C1(C#N)C#N` (configuration not stated), the TGI is 64.6 µM in assay [1]; greater than 100 µM in assay [2]; 28.5 µM in [3]; 42.7 µM in assay [4]; 30.7 µM in assay [5]; 32.3 µM in assay [6]. The TGI in assay [7] amounted to 33.8 µM; in [8], 94.3 µM; in [9], 99.6 µM; in assay [10] it was 31.8 µM; in assay [11] it was 31.2 µM; in assay [13], 81.6 µM. For the same compound, the TGI is 57 µM in assay [14]; 26.6 µM in assay [15]; 63.6 µM in [16]; greater than 100 µM in assay [17]; 28.1 µM in assay [18]; 35.4 µM in assay [19].
